From patent US20250249013A1, “COMBINATION METABOLIC-EPIGENETIC TREATMENT FOR EARLY LUNG CANCER” (THE REGENTS OF THE UNIVERSITY OF CALIFORNIA, priority 2022, published 2025)

Experiments:
NCI-H358 cells [1] = assay: EZH2 inhibition with GSK126 in low glucose, western blot; format: cell-based, human; conditions: GSK126 0.25 μM
Procedure: (§1) Human lung cancer A549 (CCL-185) and NCI-H358 (CRL-5807) cells lines were purchased from American Type Culture Collection (ATCC, Manassas, VA). Cells were maintained in culture according to manufacturer protocol using Roswell Park Memorial Institute (RPMI) 1640 medium (Corning, Cat. #10-040CV) supplemented with 10% FBS and 5% 1× Pen-Strep and kept in 37° C. and 5% of CO2. Murine 2953A cell line was established in our lab from a KP lung tumor by tissue dissociation. This cell line was maintained in culture in Dulbecco's modified Eagle Medium (DMEM) medium (Corning, Cat. #10-017CV) with 5% FBS and 5% 1× Pen-Strep.
(§2) All experiments in cell lines were performed in biological triplicate. Cells were seeded at same confluence and grown for 5 days (and for some experiments overnight or up to 9 days or 30 days, as indicated in the figures and text) in different concentration of glucose: high (20 mM), low (1 mM) and for some experiments medium (5 mM), as indicated. We used mediums with glutamine and without glucose: RPMI (Corning Cat. #10-043CV) for A549 and NCI-H358 cells, DMEM (ThermoScientific Cat. #11566025) for 2953A cells, supplemented with 10% FBS, 5% of 1× Pen-Strep and complemented with D-Glucose to the desired final concentration, as indicated in the figures.
(§3) For total protein extraction, cells were harvested, washed twice with ice-cold PBS-EDTA (0.5 mm EDTA), lysed using RIPA buffer (50 mM Tris-HCl pH 7.6, 150 mM NaCl, 0.1% SDS, 0.5% C24H39NaO4, 1% NP-40, 2 mm EDTA, 50 mm NaF) for 15 min on ice and centrifuged at 13,000 rpm for 30 min at +4° C. The resulting protein extracts were quantified using BCA protein assay followed by analysis by SDS-PAGE and Western blotting.
(§4) Histones was extracted from A549, NCI-H358 and 2953A cell lines using the Histone extraction kit (Abcam) according to manufacturer instructions.
(§5) SDS-PAGE and Western blotting analyses were performed using standard protocols. For antibodies information, see Reagents and Tools Table. Western blot images were detected by iBright Imaging Systems (Thermo Fisher Scientific). The protein detected was normalized to Actin or H3 total antibodies, this last in case of histonic extract. Each immunodetection derived from the same membrane was performed with the same exposure times according to the manufacture's antibody guidelines and was cropped only for presentation purposes; this is indicated by a dotted line.

A549 cells [2] = assay: as above; format: cell-based, human; conditions: GSK126 0.25 μM
Procedure: as §1, §2, §3, §4, §5

LUAD = conditions: genetically engineered murine models and patient-derived xenografts; cited from earlier work
A549 and NCI-H358 cells = assay: RNA-seq, genes regulated consistently in both cell lines; format: cell-based, human; conditions: significantly regulated in at least 3 of the four conditions
Procedure: (§6) A549 and NCI-H358 cell lines were incubated in triplicate with high glucose (20 mM), low glucose (1 mM), and low glucose+dm-αKG (10 mM). Total RNA was extracted as previously described. RNA sequencing was performed by Med Genome. Sample quality control was performed using Quibit fluorometric (Agilent) and Tapestation bioanalyzer (Agilent). For library preparation TruSeq Stranded Total RNA kit (Illumina) was used and libraries were sequenced on NovaSeq platform (Illumina). The FASTQ data generated was used for gene expression analysis, performed as described in Nassa et al (Nassa et al, 2019).
Briefly, the raw sequence files generated (.fastq files) underwent quality control analysis using FASTQC (http://www.bioinformatics.babraham.ac.uk/projects/fastqc/) and adapter sequences were removed using Trimmomatic version 0.38 (Bolger et al, 2014) Filtered reads were aligned on human genome (assembly hg38) considering genes present in GenCode Release 35 (GRCh38.p12) using STAR v2.7.6a (Dobin et al, 2013) with standard parameters. Quantification of expressed genes was performed using featureCounts (Liao et al, 2014) and differentially expressed genes were identified using DESeq2 (Love et al, 2014). A given RNA was considered expressed when detected by at least ≥10 raw reads. […]

2953A cells = assay: αKG rescue in low glucose, western blot and RT-PCR; format: cell-based, mouse; conditions: low glucose 5 days
Procedure: as §1, §2
(§7) All αKG rescue experiments were conducted using 10 mM alpha-ketoglutarate (α-KG; Sigma) and α-Mannitol (Sigma) as osmotic control.
as §3, §4, §5
(§8) Total RNA was extracted from A549, NCI-H358 and 2953A by using TRI Reagent Solution (Applied Biosystem), according to manufacturer instruction. RNA concertation was assayed by Nanodrop 3000 spectrophotometer (Thermo Fisher Scientific). Then, 1 μg of RNA was treated with DNase I (Thermo Fisher Scientific) and used for cDNA preparation.
(§9) cDNA was prepared using 1 μg of RNA with SuperScript IV Reverse Transcriptase (Invitrogen). SYBR green-based RT-PCR kit (Biorad) was performed using human and mouse primers (See Table EV11). mRNA levels were normalized to GAPDH (ΔCt=Ctgene of interest-Ct GAPDH) and presented as relative mRNA expression (ΔΔCt=2-(ΔCtsample-ΔCtcontrol)). All primers were designed by NCBI Primer-BLAST and purchased from Integrated DNA Technologies.

NCI-H358 cells [3] = assay: RNA-seq, low glucose with dm-αKG; format: cell-based, human; conditions: NCI-H358, low glucose + dm-αKG 10 mM, five days
Procedure: as §6
(§10) Briefly, the raw sequence files generated (.fastq files) underwent quality control analysis using FASTQC (http://www.bioinformatics.babraham.ac.uk/projects/fastqc/) and adapter sequences were removed using Trimmomatic version 0.38 (Bolger et al, 2014) Filtered reads were aligned on human genome (assembly hg38) considering genes present in GenCode Release 35 (GRCh38.p12) using STAR v2.7.6a (Dobin et al, 2013) with standard parameters. Quantification of expressed genes was performed using featureCounts (Liao et al, 2014) and differentially expressed genes were identified using DESeq2 (Love et al, 2014). A given RNA was considered expressed when detected by at least ≥10 raw reads.
(§11) Differential expression was reported as Ifold-changel (FC)[…] along with associated adjusted pvalues≤0.05 computed according to Benjamini-Hochberg. Gene Set Enrichment Analysis (GSEA) was performed to examine pathway enrichment for the differential expressed genes with the Molecular Signature Database “Hallmarks” gene set collection (Liberzon et al, 2015). Only those with an FDR […] have been selected.

A549 cells [4] = assay: RNA-seq, low glucose with dm-αKG; format: cell-based, human; conditions: A549, low glucose + dm-αKG 10 mM, five days
Procedure: as §6, §10, §11

NCI-H358 cells [5] = assay: αKG rescue in low glucose, western blot and RT-PCR; format: cell-based, human
Procedure: as §1, §2, §7, §3, §4, §5, §8, §9

A549 cells [6] = assay: αKG rescue in low glucose, western blot and RT-PCR; format: cell-based, human
Procedure: as §1, §2, §7, §3, §4, §5, §8, §9

[7] = A549, low glucose (1 mM) 5 days
[8] = NCI-H358, low glucose 5 days, dm-αKG
[9] = NCI-H358, low glucose 5 days, dm-αKG 10 mM
[10] = A549, low glucose 5 days, dm-αKG
[11] = A549, low glucose 5 days, dm-αKG 10 mM

CC[C@H](C)n1cc(C)c2c(C(=O)NCc3c(C)cc(C)[nH]c3=O)cc(-c3ccc(N4CCNCC4)nc3)cc21 [GSK126]
EZH2 activity (NCI-H358 cells [1]): inhibited | expression of FoxA2, western blot (NCI-H358 cells [1]): rescued | tri-methylation of H3K27, western blot (NCI-H358 cells [1]): rescued | expression of FoxA2, western blot (A549 cells [2]; [7]): rescued | tri-methylation of H3K27, western blot (A549 cells [2]; [7]): rescued | EZH2 activity (A549 cells [2]; A549, low glucose): inhibited

Cc1ccc([C@@H]2O[C@H](CO)[C@@H](O)[C@H](O)[C@H]2O)cc1Cc1ccc(-c2ccc(F)cc2)s1 [canagliflozin]
development of LUAD (LUAD): significantly delays | survival (LUAD): prolongs survival | tumor growth (LUAD): reduces tumor growth

COC(=O)CCC(=O)C(=O)OC [dm-αKG, dimethyl-αKG]
genes down-regulated by low glucose consistently in both cell lines and rescued by dm-αKG (A549 and NCI-H358 cells): 445 genes | genes up-regulated by low glucose consistently in both cell lines and rescued by dm-αKG (A549 and NCI-H358 cells): 524 genes | H3K4 hyper-methylation, western blot on histone extracts (2953A cells; dm-αKG): reverse | H3K9 hyper-methylation, western blot on histone extracts (2953A cells; dm-αKG): reverse | H3K27 hyper-methylation, western blot on histone extracts (2953A cells; dm-αKG): reverse | H3K27 hypo-acetylation, western blot on histone extracts (2953A cells; dm-αKG): reverse | GLUT1 expression, qPCR (2953A cells; dm-αKG 10 mM): reduced | low glucose-induced inhibition of FoxA2 mRNA, qPCR (2953A cells; dm-αKG 10 mM): rescued | low glucose-induced reduction in FOXA2 protein, western blot (2953A cells; dm-αKG 10 mM): rescued | number of low glucose down-regulated genes rescued by dm-αKG (NCI-H358 cells [3]; 942 genes down-regulated by low glucose): 370 genes | number of low glucose up-regulated genes rescued by dm-αKG (NCI-H358 cells [3]; 1,335 genes up-regulated by low glucose): 510 genes | number of low glucose down-regulated genes rescued by dm-αKG (A549 cells [4]; 2,024 genes down-regulated by low glucose): 1,431 genes | number of low glucose up-regulated genes rescued by dm-αKG (A549 cells [4]; 2,394 genes up-regulated by low glucose): 1,634 genes | HIF1α and HIF2α protein, western blot, control condition (NCI-H358 cells [5]; NCI-H358, cells growing in low glucose (so in the source), dm-αKG): did not have any effect | H3K4 hyper-methylation, western blot on histone extracts (NCI-H358 cells [5]; [8]): reverse | H3K9 hyper-methylation, western blot on histone extracts (NCI-H358 cells [5]; [8]): reverse | H3K27 hyper-methylation, western blot on histone extracts (NCI-H358 cells [5]; [8]): reverse | H3K27 hypo-acetylation, western blot on histone extracts (NCI-H358 cells [5]; [8]): reverse | low glucose-induced increase of Slug, western blot (NCI-H358 cells [5]; [8]): rescued | low glucose-induced repression of PHD3 expression, RT-PCR (NCI-H358 cells [5]; [8]): rescued | low glucose-induced up-regulation of HIF1α mRNA, RT-PCR (NCI-H358 cells [5]; [8]): rescued | low glucose-induced up-regulation of HIF1α protein, western blot (NCI-H358 cells [5]; [8]): reversed | low glucose-induced up-regulation of HIF2α mRNA, RT-PCR (NCI-H358 cells [5]; [8]): rescued | low glucose-induced up-regulation of HIF2α protein, western blot (NCI-H358 cells [5]; [8]): reversed | GLUT1 expression, qPCR (NCI-H358 cells [5]; [9]): reduced | low glucose-induced inhibition of FoxA2 mRNA, qPCR (NCI-H358 cells [5]; [9]): rescued | low glucose-induced inhibition of TTF-1 mRNA, qPCR (NCI-H358 cells [5]; [9]): rescued | low glucose-induced reduction in FOXA2 protein, western blot (NCI-H358 cells [5]; [9]): rescued | low glucose-induced reduction in TTF1 protein, western blot (NCI-H358 cells [5]; [9]): rescued | HIF1α and HIF2α protein, western blot, control condition (A549 cells [6]; A549, cells growing in low glucose (so in the source), dm-αKG): did not have any effect | H3K4 hyper-methylation, western blot on histone extracts (A549 cells [6]; [10]): reverse | H3K9 hyper-methylation, western blot on histone extracts (A549 cells [6]; [10]): reverse | H3K27 hyper-methylation, western blot on histone extracts (A549 cells [6]; [10]): reverse | H3K27 hypo-acetylation, western blot on histone extracts (A549 cells [6]; [10]): reverse | low glucose-induced increase of Slug, western blot (A549 cells [6]; [10]): rescued | low glucose-induced reduction in Snail, western blot (A549 cells [6]; [10]): partially rescued | low glucose-induced reduction in ZEB1, western blot (A549 cells [6]; [10]): partially rescued | low glucose-induced repression of PHD3 expression, RT-PCR (A549 cells [6]; [10]): rescued | low glucose-induced up-regulation of HIF1α mRNA, RT-PCR (A549 cells [6]; [10]): rescued | low glucose-induced up-regulation of HIF1α protein, western blot (A549 cells [6]; [10]): reversed | low glucose-induced up-regulation of HIF2α mRNA, RT-PCR (A549 cells [6]; [10]): rescued | low glucose-induced up-regulation of HIF2α protein, western blot (A549 cells [6]; [10]): reversed | GLUT1 expression, qPCR (A549 cells [6]; [11]): reduced | low glucose-induced inhibition of FoxA2 mRNA, qPCR (A549 cells [6]; [11]): rescued | low glucose-induced reduction in FOXA2 protein, western blot (A549 cells [6]; [11]): rescued
